Data on one molecule can be found in PMC9747113 (Clinical and Translational Science, 2022).

“Also recorded” adds a separate entry of the source.

Data set [1] in a line: Tolerability in fed and fasted states. Type of data set: in vivo. Conditions: fed vs fasted.
The nature of data set [2]: Population PK model of evobrutinib plasma concentration-time data.
For data set [3], the system named is BTK. The conditions noted are these: 2 h after the first dose; cited from earlier work.
The subject of data set [4] is BTK. The conditions noted are these: cited from earlier work.
The mark [5] stands for this setting: between-participant variability, variance estimate.
[6] abbreviates: final population PK model, oral tablet.

What is called Vd/F is the apparent distribution volume after extravascular dosing. In the case of `C=CC(=O)N1CCC(CNc2ncnc(N)c2-c2ccc(Oc3ccccc3)cc2)CC1` [evobrutinib, Evobrutinib], in data set [1], the “Tolerability in fed and fasted states” value is on record as “equivalent”. In data set [2] (setting [5]), the “BPV ALAG, Estimate (RSE %)” value is 0.156 (40.2); the “BPV CL/F, Estimate (RSE %)” value is reported as 0.0958 (23.0); the “BPV D 1 Fasted, Estimate (RSE %)” value is recorded as 1.39 (47.2); the “BPV D 1 Fed, Estimate (RSE %)” value is reported as 1.39 (47.2). Also, in data set [2] (setting [5]), the “BPV Q/F, Estimate (RSE %)” value was 1.17 (24.1); the “BPV V2/F, Estimate (RSE %)” value is reported as 0.627 (31.9); the “BPV V3/F, Estimate (RSE %)” value is on record as 1.86 (22.7). Besides, the “Effect of ethnicity (Japanese vs non-Japanese) on PK parameters” value in data set [2] (covariate test) was “no difference; also recorded: not a significant covariate”. In data set [2] (setting [6]), the “ALAG (absorption lag time)” value is listed as 0.235 h, the “CL/F (apparent clearance)” value was determined as 273 L/h, the “K a (first-order absorption rate constant)” value is 0.784 h⁻¹ and the “V3/F (apparent peripheral volume of distribution)” value turned out to be 446 L. Further, the Vd/F in data set [2] (human, in vivo, po) was 61.1 L. Besides, the “Increase of bioavailability with food compared with fasted” value in data set [2] (low-fat meal vs fasted) is 49%. Further, the “BTKO in peripheral blood” value in the data set with BTK [3] was “high degree of BTKO”. In addition, in the data set with BTK [4] (after 14 days of 25 mg q.d. while fasted), the “BTKO, median at trough” value is on record as 88%. For the same molecule, the “BTK occupancy at 96 h postdose” value in the data set with BTK [4] (single doses ≥100 mg while fasted) is reported as greater than 50%. Besides, the “maximum BTK occupancy” value in the data set with BTK [4] (within 4 h of single doses ≥200 mg while fasted) is on record as greater than 90%.
